Assay results taken from patent US8912195B2, “Alkyl amides as HIV attachment inhibitors” (priority 2010, dated 2014).
Like-named read-outs stand apart in the source and are kept apart here.

Test system: single-round infectious reporter virus with HIV-1 LAI envelope
Test: Single-round infectious HIV-1 LAI luciferase reporter virus infection of MT2 cells
Type: cell-based
Details: Human immunodeficiency virus 1, MT2, 72 h
From the text: • Virus production—Human embryonic Kidney cell line, 293T (HEK 293T), was propagated in Dulbecco's Modified Eagle Medium (Invitrogen, Carlsbad, Calif.) containing 10% fetal Bovine serum (FBS, Sigma, St. Louis, Mo.). The human T-cell leukemia cell MT2 (AIDS Research and Reference Reagent Program, Cat. 237) was propagated in RPMI 1640 (Invitrogen, Carlsbad, Calif.) containing 10% fetal bovine serum (FBS, Hyclone, Logan, Utah) • Virus infection—Single-round infectious reporter virus was produced by co-transfecting HEK 293T cells with plasmide expressing the HIV-1 LAI envelope along with a plasmid containing an HIV-1 LAI proviral cDNA with the envelope gene replaced by a firefly luciferase reporter gene (Chen et al, Ref 41). Transfections were performed using lipofectAMINE PLUS reagent as described by the manufacturer (Invitrogen, Carlsbad, Calif.).
• 1. MT2 cells were plated in black, 384 well plates at a cell density of 5×10^3 cells per well in 25 μl RPMI 1640 containing 10% FBS. • 2. Compound (diluted in dimethylsulfoxide and growth medium) was added to cells at 12.5 μl/well, so that the final assay concentration would be ≦50 nM. • 3. 12.5 μl of single-round infectious reporter virus in Dulbecco's Modified Eagle Medium was added to the plated cells and compound at an approximate multiplicity of infection (MOI) of 0.01, resulting in a final volume of 50 μl per well. • 4. Virus-infected cells were incubated at 37 degrees Celsius, in a CO2 incubator, and harvested 72 h after infection. • 5. Viral infection was monitored by measuring luciferase expression in the infected cells using a luciferase reporter gene assay kit (Steady-Glo, Promega, Madison, Wis.) as described by the manufacturer. Luciferase activity was then quantified by measuring luminescence using an EnVision Multilabel Plate Readers (PerkinElmer, Waltham, Mass.). • 6. The percent inhibition for each compound was calculated by quantifying the level of luciferase expression in cells infected in the presence of each compound as a percentage of that observed for cells infected in the absence of compound and subtracting such a determined value from 100. • 7. An EC50 provides a method for comparing the antiviral potency of the compounds of this disclosure. The effective concentration for fifty percent inhibition (EC50) was calculated with the Microsoft Excel Xlfit curve fitting software. For each compound, curves were generated from percent inhibition calculated at 10 different concentrations by using a four paramenter logistic model (model 205). Table 1 is the key for the data in Table 2.

[1] = read-out: EC50 Group from Table 1

Row | Compound | EC50 [1] [nM] | EC50 [nM]
1 | CN1CCC(C(=O)N2CCN(C(=O)C(=O)c3c[nH]c4c(-n5ccnn5)ncc(F)c34)CC2)CC1 [Compound 2020] | > 500 | –
2 | COc1cnc(-n2cnc(C)n2)c2[nH]cc(C(=O)C(=O)N3CCN(C(=O)CCC4CCCC4)CC3)c12 [Compound 2041] | < 500 | –
3 | COCC(=O)N1CCN(C(=O)C(=O)c2c[nH]c3c(-n4cnc(C)n4)ncc(OC)c23)CC1 [Compound 2048] | < 500 | –
4 | CCC(=O)N1CCN(C(=O)C(=O)c2c[nH]c3c(-n4cnc(C)n4)ncc(OC)c23)CC1 [Compound 2050] | < 500 | 10.4
5 | CC[C@@]12CC3C[C@@](O)(C1)C[C@](C(=O)N1CCN(C(=O)C(=O)c4c[nH]c5c(-n6ccnn6)ncc(F)c45)CC1)(C3)C2 [Compound 2027] | < 500 | –
6 | O=C(C(=O)N1CCN(C(=O)C2CCC(F)(F)CC2)CC1)c1c[nH]c2c(-n3ccnn3)ncc(F)c12 [Compound 2022] | < 500 | –
7 | O=C(C(=O)N1CCN(C(=O)C23CC4CC(CC2C4)C3)CC1)c1c[nH]c2c(-n3ccnn3)ncc(F)c12 [Compound 2004] | < 500 | 1.15
8 | O=C(C(=O)N1CCN(C(=O)C2CCCO2)CC1)c1c[nH]c2c(-n3ccnn3)ncc(F)c12 (stereo not drawn) [Compound 2002] | < 500 | –
9 | C[C@H]1CC[C@H](C(=O)N2CCN(C(=O)C(=O)c3c[nH]c4c(-n5ccnn5)ncc(F)c34)CC2)CC1 [Compound 2012] | < 500 | –
10 | O=C(C(=O)N1CCN(C(=O)C2CCOCC2)CC1)c1c[nH]c2c(-n3ccnn3)ncc(F)c12 [Compound 2014] | < 500 | 12.5
11 | CN1CCC[C@H]1C(=O)N1CCN(C(=O)C(=O)c2c[nH]c3c(-n4ccnn4)ncc(F)c23)CC1 [Compound 2030] | > 500 | –
12 | O=C(C(=O)N1CCN(C(=O)C23CC4CC(CC(C4)C2)C3)CC1)c1c[nH]c2c(-n3ccnn3)ncc(F)c12 [Compound 2016] | < 500 | –
13 | CC(C)(C)OC(=O)N1CCC(C(=O)N2CCN(C(=O)C(=O)c3c[nH]c4c(-n5ccnn5)ncc(F)c34)CC2)CC1 [Compound 2035] | > 500 | –
14 | COc1cnc(-n2ccnn2)c2[nH]cc(C(=O)C(=O)N3CCN(C(=O)[C@]45C[C@H]6C[C@H](C[C@H](C6)C4)C5)CC3)c12 [Compound 1003] | < 500 | –
15 | CC1CCCCC1C(=O)N1CCN(C(=O)C(=O)c2c[nH]c3c(-n4ccnn4)ncc(F)c23)CC1 (stereo not drawn) [Compound 2003] | < 500 | –
16 | CC(C)(C)OC(=O)N[C@@H](C(=O)N1CCN(C(=O)C(=O)c2c[nH]c3c(-n4ccnn4)ncc(F)c23)CC1)c1ccccc1 [Compound 2026] | > 500 | –
17 | CN(C)[C@@H](C(=O)N1CCN(C(=O)C(=O)c2c[nH]c3c(-n4ccnn4)ncc(F)c23)CC1)c1ccccc1 [Compound 2036] | > 500 | –
18 | O=C(C(=O)N1CCN(C(=O)[C@H](O)c2ccccc2)CC1)c1c[nH]c2c(-n3ccnn3)ncc(F)c12 [Compound 2019] | < 500 | 344
19 | CC(C)(C)OC(=O)N1CCCC(C(=O)N2CCN(C(=O)C(=O)c3c[nH]c4c(-n5ccnn5)ncc(F)c34)CC2)C1 (stereo not drawn) [Compound 2034] | > 500 | –
20 | CCC(=O)N1CCN(C(=O)C(=O)c2c[nH]c3c(-n4ccnn4)ncc(F)c23)CC1 [Compound 2046] | < 500 | 6.88
21 | COc1cnc(-n2ccnn2)c2[nH]cc(C(=O)C(=O)N3CCN(C(=O)C4CCCCCC4)CC3)c12 [Compound 1004, 1-(4-(cycloheptanecarbonyl)piperazin-1-yl)-2-(4-methoxy-7-(1H-1,2,3-triazol-1-yl)-1H-pyrrolo[2,3-c]pyridin-3-yl)ethane-1,2-dione] | < 500 | 0.14
22 | CCCCCC(=O)N1CCN(C(=O)C(=O)c2c[nH]c3c(-n4cnc(C)n4)ncc(OC)c23)CC1 [Compound 2040] | < 500 | –
23 | CN(C)[C@H](C(=O)N1CCN(C(=O)C(=O)c2c[nH]c3c(-n4ccnn4)ncc(F)c23)CC1)c1ccccc1 [Compound 2037] | > 500 | –
24 | CC(C)(C)C1CCC(C(=O)N2CCN(C(=O)C(=O)c3c[nH]c4c(-n5ccnn5)ncc(F)c34)CC2)CC1 (stereo not drawn) [Compound 2009] | > 500 | –
25 | O=C(C(=O)N1CCN(C(=O)C2CCC(O)CC2)CC1)c1c[nH]c2c(-n3ccnn3)ncc(F)c12 (stereo not drawn) [Compound 2018] | < 500 | –
26 | O=CN1CCCC(C(=O)N2CCN(C(=O)C(=O)c3c[nH]c4c(-n5ccnn5)ncc(F)c34)CC2)C1 (stereo not drawn) [Compound 2028] | < 500 | 25.5

Row | Compound | EC50 [1] [nM] | EC50 [nM]
27 | O=C(C(=O)N1CCN(C(=O)CCC2CCCC2)CC1)c1c[nH]c2c(-n3ccnn3)ncc(F)c12 [Compound 2043] | < 500 | –
28 | CC(C)CC(=O)N1CCN(C(=O)C(=O)c2c[nH]c3c(-n4ccnn4)ncc(F)c23)CC1 [Compound 1001, 1-(4-fluoro-7-(1H-1,2,3-triazol-1-yl)-1H-pyrrolo[2,3-c]pyridin-3-yl)-2-(4-(3-methylbutanoyl)piperazin-1-yl)ethane-1,2-dione] | < 500 | –
29 | O=C(C(=O)N1CCN(C(=O)C2CC2)CC1)c1c[nH]c2c(-n3ccnn3)ncc(F)c12 [Compound 2038] | < 500 | –
30 | COCCOCC(=O)N1CCN(C(=O)C(=O)c2c[nH]c3c(-n4cnc(C)n4)ncc(OC)c23)CC1 [Compound 2051] | > 500 | –
31 | CC(C)(C)OC(=O)N[C@H](C(=O)N1CCN(C(=O)C(=O)c2c[nH]c3c(-n4ccnn4)ncc(F)c23)CC1)c1ccccc1 [Compound 2031] | > 500 | –
32 | O=C(C(=O)N1CCN(C(=O)C2C[C@H]3C[C@@H]2CCC3O)CC1)c1c[nH]c2c(-n3ccnn3)ncc(F)c12 (stereo partly drawn) [Compound 2010] | < 500 | –
33 | CN1CCCC(C(=O)N2CCN(C(=O)C(=O)c3c[nH]c4c(-n5ccnn5)ncc(F)c34)CC2)C1 (stereo not drawn) [Compound 2021] | < 500 | 76.9
34 | CC(C)(C)OC(=O)N1CCC(C(=O)N2CCN(C(=O)C(=O)c3c[nH]c4c(-n5ccnn5)ncc(F)c34)CC2)C1 (stereo not drawn) [Compound 2033] | > 500 | –
35 | CN1CCCCC1C(=O)N1CCN(C(=O)C(=O)c2c[nH]c3c(-n4ccnn4)ncc(F)c23)CC1 (stereo not drawn) [Compound 2029] | > 500 | –
36 | O=C(C(=O)N1CCN(C(=O)C2CCOC2)CC1)c1c[nH]c2c(-n3ccnn3)ncc(F)c12 (stereo not drawn) [Compound 2015] | < 500 | –
37 | CC1(C)CC(C(=O)N2CCN(C(=O)C(=O)c3c[nH]c4c(-n5ccnn5)ncc(F)c34)CC2)CC(C)(C)N1 [Compound 2025] | > 500 | –
38 | CCCCCC(=O)N1CCN(C(=O)C(=O)c2c[nH]c3c(-n4ccnn4)ncc(F)c23)CC1 [Compound 2042] | < 500 | –
39 | O=C(C(=O)N1CCN(C(=O)C2CCCCCC2)CC1)c1c[nH]c2c(-n3ccnn3)ncc(F)c12 [Compound 2005] | < 500 | 0.36
40 | O=C(C(=O)N1CCN(C(=O)[C@@H](O)c2ccccc2)CC1)c1c[nH]c2c(-n3ccnn3)ncc(F)c12 [Compound 2023] | < 500 | –
41 | COCCOCC(=O)N1CCN(C(=O)C(=O)c2c[nH]c3c(-n4ccnn4)ncc(F)c23)CC1 [Compound 2047] | > 500 | –
42 | CC1CCCC(C(=O)N2CCN(C(=O)C(=O)c3c[nH]c4c(-n5ccnn5)ncc(F)c34)CC2)C1 (stereo not drawn) [Compound 2001] | < 500 | –
43 | O=C(C(=O)N1CCN(C(=O)C2CCCCC2)CC1)c1c[nH]c2c(-n3ccnn3)ncc(F)c12 [Compound 2017] | < 500 | 0.11
44 | COCC(=O)N1CCN(C(=O)C(=O)c2c[nH]c3c(-n4ccnn4)ncc(F)c23)CC1 [Compound 2044] | < 500 | –
45 | O=C(C(=O)N1CCN(C(=O)C2CC3CCC2C(O)C3)CC1)c1c[nH]c2c(-n3ccnn3)ncc(F)c12 (stereo not drawn) [Compound 2008] | < 500 | 5.1
46 | COc1cnc(-n2cnc(C)n2)c2[nH]cc(C(=O)C(=O)N3CCN(C(=O)CN(C)C)CC3)c12 [Compound 2049] | > 500 | –
47 | CN(C)CC(=O)N1CCN(C(=O)C(=O)c2c[nH]c3c(-n4ccnn4)ncc(F)c23)CC1 [Compound 2045] | > 500 | –
48 | CC(C)=C[C@@H]1[C@@H](C(=O)N2CCN(C(=O)C(=O)c3c[nH]c4c(-n5ccnn5)ncc(F)c34)CC2)C1(C)C [Compound 2011] | > 500 | –
49 | O=C(C(=O)N1CCN(C(=O)C2CCCOC2)CC1)c1c[nH]c2c(-n3ccnn3)ncc(F)c12 (stereo not drawn) [Compound 2024] | < 500 | –
50 | NC1(C(=O)N2CCN(C(=O)C(=O)c3c[nH]c4c(-n5ccnn5)ncc(F)c34)CC2)CCCC1 [Compound 2013] | < 500 | 451
51 | C[C@]1(C(=O)N2CCN(C(=O)C(=O)c3c[nH]c4c(-n5ccnn5)ncc(F)c34)CC2)CCCN1 [Compound 2007] | > 500 | –
